# Results as given in US20250195521A1 (Revolution Medicines, Inc., priority 2020, published 2025).
# Experiments:
# [1] = target: KRAS G13C binding to BRAF RBD (Homo sapiens (Human), UniProt P01116+P62937, G13C); test: Ras-Raf disruption/FRET/MOA assay, KRAS G13C; type: biochemical
# From the text: Disruption of B-Raf Ras-binding Domain (BRAF^RBD) Interaction with K-Ras by Compounds of the Invention (also called a FRET assay or an MOA assay)
# Note—The following protocol describes a procedure for monitoring disruption of K-Ras G12C(GMP-PNP) binding to BRAF^RBD by a compound of the invention. This protocol may also be executed substituting other Ras proteins or nucleotides.
# (§1) The purpose of this biochemical assay was to measure the ability of test compounds to facilitate ternary complex formation between a nucleotide-loaded K-Ras isoform and Cyclophilin A; the resulting ternary complex disrupts binding to a BRAF^RBD construct, inhibiting K-Ras signaling through a RAF effector. Data is reported as IC50 values.
# (§2) In assay buffer containing 25 mM HEPES pH 7.3, 0.002% Tween20, 0.1% BSA, 100 mM NaCl and 5 mM MgCl2, tagless Cyclophilin A, His6-K-Ras-GMPPNP, and GST-BRAF^RBD were combined in a 384-well assay plate at final concentrations of 25 μM, 12.5 nM and 50 nM, respectively. Compound was present in plate wells as a 10-point 3-fold dilution series starting at a final concentration of 30 μM. After incubation at 25° C. for 3 hours, a mixture of Anti-His Eu—W1024 and anti-GST allophycocyanin was then added to assay sample wells at final concentrations of 10 nM and 50 nM, respectively, and the reaction incubated for an additional 1.5 hours. […] Compounds that facilitate disruption of a K-Ras: RAF complex were identified as those eliciting a decrease in the TR-FRET ratio relative to DMSO control wells.
# [2] = target: NRAS G12C binding to BRAF RBD (Homo sapiens (Human), UniProt P01111+P62937, G12C); test: Ras-Raf disruption/FRET/MOA assay, NRAS G12C; type: biochemical
# Outline: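 First, test compounds in a 10-point 3-fold series (30 μM final top) were incubated for 3 hours at 25° C with nucleotide-loaded Ras, cyclophilin A and a BRAF RBD construct. Next, Eu anti-His and allophycocyanin anti-GST detection reagents were added for 1.5 hours. Finally, IC50s were derived from loss of TR-FRET signal against DMSO.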
# KRAS G13D = KRAS G13D (Homo sapiens (Human), UniProt P01116+P62937, G13D); test: Ras-Raf disruption/FRET/MOA assay, KRAS G13D; type: biochemical
# Outline: (§3)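 Measured by TR-FRET: a decrease relative to DMSO indicates disruption of GMPPNP-Ras binding to BRAF^RBD, mediated by Cyclophilin A (25 μM). Compound was tested as a dilution series up to 30 μM with 3 h preincubation at 25° C.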
# KRAS WT = KRAS WT (Homo sapiens (Human), UniProt P01116+P62937); test: Ras-Raf disruption/FRET/MOA assay, KRAS WT; type: biochemical
# Outline: as §3
# AsPC-1 (K-Ras G12D) = test: Potency assay: pERK; type: cell-based, human; conditions: Homo sapiens, ASPC1; AsPC-1 KRAS G12D; read-out: pERK EC50
# Outline: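 pERK decrease measured after 4 h compound treatment at 37 °C (10 three-fold dilutions, duplicate wells), by either fixed-cell In-Cell Western with DRAQ5 counterstain or AlphaLISA on lysates. Signal fitted against log concentration with a four-parameter model to give IC50.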
# NRAS Q61R = NRAS Q61R (Homo sapiens (Human), UniProt P01111+P62937, Q61R); test: Ras-Raf disruption/FRET/MOA assay, NRAS Q61R; type: biochemical
# From the text: (§4) Disruption of B-Raf Ras-Binding Domain (BRAF^RBD) Interaction with K-Ras by Compounds of the Invention (Also Called a FRET Assay or an MOA Assay)
# (§5) Note—The following protocol describes a procedure for monitoring disruption of K-Ras G12C (GMP-PNP) binding to BRAF^RBD by a compound of the invention. This protocol may also be executed substituting other Ras proteins or nucleotides, such as K-Ras G12D and K-Ras G13D.
# as §1
# as §2, with “12.5 nM,” for “12.5 nM”, “of anti-His” for “of Anti-His”
# KRAS G13C = KRAS G13C (Homo sapiens (Human), UniProt P01116+P62937, G13C); test: Ras-Raf disruption/FRET/MOA assay, KRAS G13C; type: biochemical
# Outline: as §3
# KRAS G12D = KRAS G12D (Homo sapiens (Human), UniProt P01116+P62937, G12D); test: Ras-Raf disruption/FRET/MOA assay, KRAS G12D; type: biochemical
# Outline: as §3
# KRAS Q61H = KRAS Q61H (Homo sapiens (Human), UniProt P01116+P62937, Q61H); test: Ras-Raf disruption/FRET/MOA assay, KRAS Q61H; type: biochemical
# From the text: as §4, §5, §1
# as §2, with “12.5 nM,” for “12.5 nM”, “of anti-His” for “of Anti-His”
# NRAS G12C = NRAS G12C (Homo sapiens (Human), UniProt P01111+P62937, G12C); test: Ras-Raf disruption/FRET/MOA assay, NRAS G12C; type: biochemical
# Outline: as §3
# NRAS Q61K = NRAS Q61K (Homo sapiens (Human), UniProt P01111+P62937, Q61K); test: Ras-Raf disruption/FRET/MOA assay, NRAS Q61K; type: biochemical
# From the text: as §4, §5, §1
# as §2, with “12.5 nM,” for “12.5 nM”, “of anti-His” for “of Anti-His”
# KRAS G12C = KRAS G12C (Homo sapiens (Human), UniProt P01116+P62937, G12C); test: Ras-Raf disruption/FRET/MOA assay, KRAS G12C; type: biochemical
# Outline: as §3
# KRAS G12S = KRAS G12S (Homo sapiens (Human), UniProt P01116+P62937, G12S); test: Ras-Raf disruption/FRET/MOA assay, KRAS G12S; type: biochemical
# Outline: as §3
# NRAS WT = NRAS WT (Homo sapiens (Human), UniProt P01111+P62937); test: Ras-Raf disruption/FRET/MOA assay, NRAS WT; type: biochemical
# From the text: as §4, §5, §1
# as §2, with “12.5 nM,” for “12.5 nM”, “of anti-His” for “of Anti-His”
# KRAS G12V = KRAS G12V (Homo sapiens (Human), UniProt P01116+P62937, G12V); test: Ras-Raf disruption/FRET/MOA assay, KRAS G12V; type: biochemical
# Outline: as §3
# Sequence of KRAS G12C (P01116-2 other isoform, or with tags, fused parts or gaps G12C): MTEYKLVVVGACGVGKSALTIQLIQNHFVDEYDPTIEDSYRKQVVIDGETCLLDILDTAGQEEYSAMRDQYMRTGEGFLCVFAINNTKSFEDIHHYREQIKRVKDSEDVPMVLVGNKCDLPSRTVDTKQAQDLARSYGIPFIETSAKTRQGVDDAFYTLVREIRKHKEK
# Sequence of KRAS G12C (P62937 whole entry): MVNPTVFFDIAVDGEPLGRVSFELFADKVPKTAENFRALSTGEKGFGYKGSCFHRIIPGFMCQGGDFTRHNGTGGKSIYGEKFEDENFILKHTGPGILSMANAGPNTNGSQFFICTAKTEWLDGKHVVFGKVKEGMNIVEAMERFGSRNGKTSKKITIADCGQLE
# Sequence of NRAS G12C (P01111 whole entry G12C): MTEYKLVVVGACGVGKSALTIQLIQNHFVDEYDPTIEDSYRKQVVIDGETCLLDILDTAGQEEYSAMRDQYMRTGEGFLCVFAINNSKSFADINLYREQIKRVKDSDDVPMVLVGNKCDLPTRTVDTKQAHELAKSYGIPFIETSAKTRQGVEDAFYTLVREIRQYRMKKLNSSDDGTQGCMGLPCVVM
# Sequence of NRAS G12C (P62937 whole entry): as the sequence (P62937 whole entry) above
# Sequence of KRAS G12S (P01116 other isoform, or with tags, fused parts or gaps G12S): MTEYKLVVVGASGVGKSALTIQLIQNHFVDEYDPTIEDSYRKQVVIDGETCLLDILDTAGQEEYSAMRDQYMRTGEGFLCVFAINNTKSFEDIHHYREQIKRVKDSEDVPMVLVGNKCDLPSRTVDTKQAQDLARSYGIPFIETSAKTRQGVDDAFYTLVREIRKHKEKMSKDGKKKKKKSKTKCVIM
# Sequence of KRAS G12S (P62937 whole entry): as the sequence (P62937 whole entry) above
# Sequence of NRAS WT (P01111 whole entry): as the sequence (P01111 whole entry G12C) above, with C12G counted along it
# Sequence of NRAS WT (P62937 whole entry): as the sequence (P62937 whole entry) above
# Sequence of KRAS Q61H (P01116 other isoform, or with tags, fused parts or gaps Q61H): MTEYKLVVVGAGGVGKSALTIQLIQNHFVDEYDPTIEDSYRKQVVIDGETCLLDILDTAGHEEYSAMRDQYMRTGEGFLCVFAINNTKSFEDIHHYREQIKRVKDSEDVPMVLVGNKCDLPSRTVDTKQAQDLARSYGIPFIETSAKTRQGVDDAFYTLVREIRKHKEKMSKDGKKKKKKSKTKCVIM
# Sequence of KRAS Q61H (P62937 whole entry): as the sequence (P62937 whole entry) above
# Sequence of KRAS G13C (P01116 other isoform, or with tags, fused parts or gaps G13C): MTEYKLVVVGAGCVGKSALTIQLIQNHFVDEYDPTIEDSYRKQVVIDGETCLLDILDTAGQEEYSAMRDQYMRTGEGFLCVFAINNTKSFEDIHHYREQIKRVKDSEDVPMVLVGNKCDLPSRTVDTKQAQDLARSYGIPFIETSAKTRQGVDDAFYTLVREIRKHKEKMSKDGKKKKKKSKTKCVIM
# Sequence of KRAS G13C (P62937 whole entry): as the sequence (P62937 whole entry) above
# Sequence of NRAS Q61R (P01111 whole entry Q61R, the tested form may be a part): as the sequence (P01111 whole entry G12C) above, with C12G, Q61R counted along it
# Sequence of NRAS Q61R (P62937 whole entry, the tested form may be a part): as the sequence (P62937 whole entry) above
# Sequence of KRAS G12D (P01116 other isoform, or with tags, fused parts or gaps G12D): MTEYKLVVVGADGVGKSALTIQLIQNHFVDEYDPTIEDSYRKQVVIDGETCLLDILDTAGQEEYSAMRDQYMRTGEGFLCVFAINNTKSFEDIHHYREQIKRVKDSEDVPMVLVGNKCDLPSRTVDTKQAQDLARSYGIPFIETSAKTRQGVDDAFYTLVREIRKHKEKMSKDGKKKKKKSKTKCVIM
# Sequence of KRAS G12D (P62937 whole entry): as the sequence (P62937 whole entry) above
# Sequence of KRAS G13D (P01116 other isoform, or with tags, fused parts or gaps G13D): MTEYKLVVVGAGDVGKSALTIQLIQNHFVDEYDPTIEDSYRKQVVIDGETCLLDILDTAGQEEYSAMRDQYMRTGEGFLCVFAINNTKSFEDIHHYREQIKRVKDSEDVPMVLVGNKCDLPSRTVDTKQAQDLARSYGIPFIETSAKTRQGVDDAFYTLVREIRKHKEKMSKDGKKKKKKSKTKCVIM
# Sequence of KRAS G13D (P62937 whole entry): as the sequence (P62937 whole entry) above
# Sequence of KRAS WT (P01116 other isoform, or with tags, fused parts or gaps): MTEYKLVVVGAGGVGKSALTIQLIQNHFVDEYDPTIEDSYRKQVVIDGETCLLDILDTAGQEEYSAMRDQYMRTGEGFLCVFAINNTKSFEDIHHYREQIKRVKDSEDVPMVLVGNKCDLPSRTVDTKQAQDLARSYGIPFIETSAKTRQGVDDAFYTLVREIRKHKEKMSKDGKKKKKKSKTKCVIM
# Sequence of KRAS WT (P62937 whole entry): as the sequence (P62937 whole entry) above
# Sequence of KRAS G12V (P01116 other isoform, or with tags, fused parts or gaps G12V): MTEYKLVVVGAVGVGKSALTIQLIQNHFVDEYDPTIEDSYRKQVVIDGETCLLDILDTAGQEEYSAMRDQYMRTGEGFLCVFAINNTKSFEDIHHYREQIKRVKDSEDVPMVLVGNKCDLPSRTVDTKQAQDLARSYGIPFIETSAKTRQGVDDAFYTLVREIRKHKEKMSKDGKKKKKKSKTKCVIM
# Sequence of KRAS G12V (P62937 whole entry): as the sequence (P62937 whole entry) above
# Sequence of NRAS Q61K (P01111 whole entry Q61K): as the sequence (P01111 whole entry G12C) above, with C12G, Q61K counted along it
# Sequence of NRAS Q61K (P62937 whole entry): as the sequence (P62937 whole entry) above
# Sequence of NRAS G12C binding to BRAF RBD (P01111 whole entry G12C): as the sequence (P01111 whole entry G12C) above
# Sequence of NRAS G12C binding to BRAF RBD (P62937 whole entry): as the sequence (P62937 whole entry) above
# Sequence of KRAS G13C binding to BRAF RBD (P01116 other isoform, or with tags, fused parts or gaps G13C): as the sequence (P01116 other isoform, or with tags, fused parts or gaps G13C) above
# Sequence of KRAS G13C binding to BRAF RBD (P62937 whole entry, the tested form may be a part): as the sequence (P62937 whole entry) above
SMILES,IC50 [1],IC50 [2],IC50 (KRAS G13D),IC50 (KRAS WT),EC50 (AsPC-1 (K-Ras G12D)),IC50 (NRAS Q61R),IC50 (KRAS G13C),IC50 (KRAS G12D),IC50 (KRAS Q61H),IC50 (NRAS G12C),IC50 (NRAS Q61K),IC50 (KRAS G12C),IC50 (KRAS G12S),IC50 (NRAS WT),IC50 (KRAS G12V)
CCn1c(-c2cnccc2COC)c2c3cc(ccc31)-c1cc(O)cc(c1)C[C@H](NC(=O)[C@H](C(C)C)N(C)C(=O)[C@H]1CCN(C(=O)C#CCN(C)C)C1)C(=O)N1CCC[C@H](N1)C(=O)OCC(C)(C)C2 [Compound A107],< 10 nM,< 10 nM,–,–,–,–,–,–,–,–,–,–,–,–,–
CCn1c(-c2cccnc2[C@H](C)OC)c2c3cc(ccc31)-c1cc(O)cc(c1)C[C@H](NC(=O)[C@H](C(C)C)N(C)C(=O)[C@@]1(C)CCCN1C(=O)[C@H]1CN1)C(=O)N1CCC[C@H](N1)C(=O)OCC(C)(C)C2 [Example 239],–,–,10 to 100 nM,10 to 100 nM,< 5000 nM,100 to 1000 nM,10 to 100 nM,100 to 1000 nM,10 to 100 nM,10 to 100 nM,100 to 1000 nM,10 to 100 nM,10 to 100 nM,10 to 100 nM,10 to 100 nM
CCn1c(-c2cccnc2[C@H](C)OC)c2c3cc(ccc31)-c1cc(O)cc(c1)C[C@H](NC(=O)[C@@H](C(C)C)N(C)C(=O)[C@@]1(C)CCCN1C(=O)[C@H]1CN1)C(=O)N1CCC[C@H](N1)C(=O)OCC(C)(C)C2 [Example 240],–,–,1000 to 10000 nM,100 to 1000 nM,< 5000 nM,1000 to 10000 nM,1000 to 10000 nM,1000 to 10000 nM,100 to 1000 nM,100 to 1000 nM,> 10000 nM,100 to 1000 nM,1000 to 10000 nM,1000 to 10000 nM,1000 to 10000 nM
CCn1c(-c2cccnc2[C@H](C)OC)c2c3cc(ccc31)-c1cc(O)cc(c1)C[C@H](NC(=O)[C@H](C(C)C)N(C)C(=O)[C@@]1(C)CCCN1C(=O)[C@@H]1CN1)C(=O)N1CCC[C@H](N1)C(=O)OCC(C)(C)C2 [Example 241],–,–,10 to 100 nM,10 to 100 nM,< 5000 nM,100 to 1000 nM,10 to 100 nM,10 to 100 nM,10 to 100 nM,< 10 nM,100 to 1000 nM,< 10 nM,10 to 100 nM,10 to 100 nM,10 to 100 nM
CCn1c(-c2cccnc2[C@H](C)OC)c2c3cc(ccc31)-c1cc(O)cc(c1)C[C@H](NC(=O)[C@@H](C(C)C)N(C)C(=O)[C@@]1(C)CCCN1C(=O)[C@@H]1CN1)C(=O)N1CCC[C@H](N1)C(=O)OCC(C)(C)C2 [Example 242],–,–,100 to 1000 nM,100 to 1000 nM,< 5000 nM,1000 to 10000 nM,1000 to 10000 nM,100 to 1000 nM,100 to 1000 nM,100 to 1000 nM,1000 to 10000 nM,100 to 1000 nM,100 to 1000 nM,100 to 1000 nM,1000 to 10000 nM
CCn1c(-c2cccnc2[C@H](C)OC)c2c3cc(ccc31)-c1cc(O)cc(c1)C[C@H](NC(=O)[C@H](C(C)C)N(C)C(=O)[C@]1(C)CCCN1C(=O)[C@H]1CN1)C(=O)N1CCC[C@H](N1)C(=O)OCC(C)(C)C2 [Example 243],–,–,100 to 1000 nM,100 to 1000 nM,< 5000 nM,1000 to 10000 nM,100 to 1000 nM,100 to 1000 nM,100 to 1000 nM,10 to 100 nM,1000 to 10000 nM,10 to 100 nM,100 to 1000 nM,100 to 1000 nM,100 to 1000 nM
CCn1c(-c2cccnc2[C@H](C)OC)c2c3cc(ccc31)-c1cc(O)cc(c1)C[C@H](NC(=O)[C@H](C(C)C)N(C)C(=O)[C@]13C[C@H]1CCN3C(=O)[C@H]1CN1)C(=O)N1CCC[C@H](N1)C(=O)OCC(C)(C)C2 [Example 244],–,–,100 to 1000 nM,100 to 1000 nM,–,100 to 1000 nM,100 to 1000 nM,100 to 1000 nM,10 to 100 nM,10 to 100 nM,1000 to 10000 nM,10 to 100 nM,100 to 1000 nM,100 to 1000 nM,100 to 1000 nM
CCn1c(-c2cccnc2[C@H](C)OC)c2c3cc(ccc31)-c1cc(O)cc(c1)C[C@H](NC(=O)[C@H](C(C)C)N(C)C(=O)[C@@H]1CO[C@H](C)CN1C(=O)[C@H]1CN1)C(=O)N1CCC[C@H](N1)C(=O)OCC(C)(C)C2 [Example 248],–,–,10 to 100 nM,10 to 100 nM,–,100 to 1000 nM,10 to 100 nM,10 to 100 nM,10 to 100 nM,10 to 100 nM,100 to 1000 nM,10 to 100 nM,10 to 100 nM,10 to 100 nM,10 to 100 nM
CCn1c(-c2cccnc2[C@H](C)OC)c2c3cc(ccc31)-c1cc(O)cc(c1)C[C@H](NC(=O)[C@H](C(C)C)N(C)C(=O)[C@@H]1CO[C@H](C)CN1C(=O)[C@@H]1CN1)C(=O)N1CCC[C@H](N1)C(=O)OCC(C)(C)C2 [Example 249],–,–,10 to 100 nM,10 to 100 nM,–,10 to 100 nM,10 to 100 nM,10 to 100 nM,< 10 nM,< 10 nM,10 to 100 nM,< 10 nM,10 to 100 nM,10 to 100 nM,10 to 100 nM
